According to patent US9498495B2, “Methods for in vitro differentiation of TH-17+ cells” (New York University, priority 2008, dated 2016):

Tests used:
Format in all cases: cell-based, human
[1] = system: memory CD45RO+CD25−CCR6+CD4+ T cells; assay: IL-17 production in sorted adult blood memory CD4+ T cells cultured with or without IL-1β in serum-containing media (intracellular staining); details: day 6
Method: (§1) Blood samples were obtained from the New York Blood Center. Mononuclear cells were prepared from buffy coats of healthy adult donors or from cord blood on FicollPAQUE gradients. CD4^+ T cells were isolated on an autoMACS Pro using Miltenyi bead depletion of CD14^+ and CD25^+ cells followed by positive selection of CD4^+ cells. Cord blood CD4^+ T cells were >97% pure and 100% CD45RA^+ and were used as such for initial transduction experiments. Adult CD4^+ T cell subsets and naive cord blood CD4^+ T cells were further purified respectively as CD3^+CD4^+CD25^−CD45RO^−/+ and CD3^+CD4^+CD25^−HLA-DR^−CD45RA^+ by cell sorting on a FACSAria.
(§2) Cells were cultivated in either RPMI1640 (Invitrogen) supplemented with 10% fetal bovine serum (Hyclone), penicillin-streptomycin, 2 mM glutamine, 10 mM HEPES, 1 mM pyruvate and 0.1 mM non-essential amino acids or serum-free XVIVO-20 (Lonza) supplemented with penicillin-streptomycin in a 37° C. 5% CO2 incubator. […]
(§3) For intracellular cytokine staining, cells were incubated for 5 hours with 50 ng/ml PMA (Sigma), 500 ng/ml Ionomycin (Sigma), and GolgiStop (BD). […] Flow cytometric measures were performed on a LSR II (BD Biosciences) instrument and analyzed using FlowJo software (Tree Star Inc.). […]

[2] = system: naive CD45RO−CD25−CCR7+ T cells; assay: IL-17 production in sorted adult blood naive CD4+ T cells cultured with or without IL-1β in serum-containing media (intracellular staining); details: day 6
Method: as §1, §2, §3

[3] = system: Cord blood CD4+ T cells transduced with RORγT; assay: IL-17 and FOXP3 expression following RORγT transduction of cord blood CD4+ T cells (intracellular staining); details: for effect on the suppression of IL-17 production induced by TGF-β: RORγT-transduced cells, with TGF-β; for increase of the proportion of IL-17-producing cells after forced expression of RORγT: cytokine 10 ng/ml
[4] = system: Naive cord blood CD4+ T cells; assay: Th17 cell polarization of naive cord blood CD4+ T cells in serum-free media (intracellular and surface staining: IL-17, IL-22, FOXP3, CCR6); details: for suppression of TGF-β-induced FOXP3 expression: added to TGF-β
Method: Blood samples were obtained from the New York Blood Center. Mononuclear cells were prepared from buffy coats of healthy adult donors or from cord blood on FicollPAQUE gradients. CD4^+ T cells were isolated on an autoMACS Pro using Miltenyi bead depletion of CD14^+ and CD25^+ cells followed by positive selection of CD4^+ cells. […] Adult CD4^+ T cell subsets and naive cord blood CD4^+ T cells were further purified respectively as CD3^+CD4^+CD25^−CD45RO^−/+ and CD3^+CD4^+CD25^−HLA-DR^−CD45RA^+ by cell sorting on a FACSAria.
(§4) Cells were cultivated in either RPMI1640 (Invitrogen) supplemented with 10% fetal bovine serum (Hyclone), penicillin-streptomycin, 2 mM glutamine, 10 mM HEPES, 1 mM pyruvate and 0.1 mM non-essential amino acids or serum-free XVIVO-20 (Lonza) supplemented with penicillin-streptomycin in a 37° C. 5% CO2 incubator. CD4^+ T cells were stimulated by addition of anti-mouse IgG magnetic beads (Pierce) previously coated with purified anti-CD3 and anti-CD28 at final concentrations of 1 bead/cell and 1 μg/ml of each antibody. […] Lentiviral supernatants were added at an MOI ranging from 1 to 10. […] For the shRNA experiment, puromycin was added at day 2 at 2 μg/ml. For polarization experiments, cells were seeded at a concentration of 5×10^5 to 10^6 cells/ml in U-bottom 96 well plates with anti-CD3/CD28 coated beads. […] For long-term experiments, cells were split as needed. […] Cells were harvested at day 6 for intracellular staining and real-time PCR analysis except where specified otherwise.
For intracellular cytokine staining, cells were incubated for 5 hours with 50 ng/ml PMA (Sigma), 500 ng/ml Ionomycin (Sigma), and GolgiStop (BD). Surface staining was performed by incubation with the corresponding fluorescently labeled antibodies for 15 min on ice. Intracellular staining was performed using the Cytofix/Cytoperm buffer set (BD). Briefly, cells were fixed and permeabilized for 30 min at room temperature and stained in permeabilization buffer for 30 min at room temperature. Flow cytometric measures were performed on a LSR II (BD Biosciences) instrument and analyzed using FlowJo software (Tree Star Inc.). Antibodies are detailed in Table 1. FOXP3 was stained using FOXP3 staining buffers (eBioscience). The present inventors used the FJK-16s antibody, which was originally reported as an anti-mouse/rat FoxP3 antibody.

[5] = system: Naive cord blood CD4+ T cells; assay: mRNA levels of Th17 markers (IL17, IL26, IL17F, RORC, RORA, IL23R) during Th17 cell differentiation of naive cord blood CD4+ T cells (real-time PCR); details: day 6; for IL-17F expression / IL-23R expression: cytokine alone (with IL-2)
Method: as §1, §4
(§5) RNA was extracted by TRIZOL (Invitrogen) and cDNA was synthesized with Superscript II (Invitrogen) and random primers. cDNA was analyzed by real-time quantitative PCR in triplicates by using iQ CYBR Green Supermix (Bio-Rad) or QuantiTect Multiplex PCR mix (Qiagen) in the iCycler Sequence Detection System (Bio-Rad). The starting quantity (SQ) of the initial cDNA sample was calculated from primer-specific standard curves by using the iCycler Data Analysis Software. The expression level of each gene was normalized to beta-actin expression level using the standard curve method. Fold changes were calculated by normalizing to the first sample of each set. Error bars were calculated based on triplicate measurements of each gene. The primer sets for real-time PCR are detailed in Table 2.

[6] = system: RORC; assay: RORC expression in CD45RO− adult naive CD4+ T cells cultivated with cytokines (real-time PCR); details: cytokine alone
Method: as §1, with “FACSAria. […]” for “FACSAria.”
as §5, with “The expression level of each gene was normalized to beta-actin expression level using the standard curve method.” left out, “The primer sets for real-time PCR are detailed in Table 2.” left out

[7] = increasing concentration of TGF-β, day 6

IL-1β: cytokine, 10 ng/ml IL-1β (eBioscience)
increase of IL-17 production [1]: two-fold
effect on IL-17 production [2]: no effect
effect on the suppression of IL-17 production induced by TGF-β [3]: partially relieved
increase of the proportion of IL-17-producing cells after forced expression of RORγT ([3]; day 6): about two-fold
suppression of TGF-β-induced FOXP3 expression ([4]; day 6): not
IL-17F expression [5]: Some expression
IL-23R expression [5]: not

IL-6: cytokine, 10 ng/ml IL-6 (eBioscience)
effect on the suppression of IL-17 production induced by TGF-β [3]: partially relieved
increase of the proportion of IL-17-producing cells after forced expression of RORγT ([3]; day 6): about two-fold
suppression of TGF-β-induced FOXP3 expression ([4]; day 6): able to inhibit
induction of IL-17 ([4]; both IL-1β and TGF-β included, day 6): active, albeit not as strongly as IL-23
induction of IL-17 ([4]; combined with TGF-β alone): failed to induce

TGF-β: cytokine, TGF-β1 (PeproTech)
effect on IL-17 production after forced expression of RORγT ([3]; various concentrations of TGF-β, day 6): potently suppressed
RORγT (RORC) expression [6]: induced dose-dependent RORγT expression
CCR6 cell surface expression ([4]; TGF-β alone, day 6): induced
FOXP3 expression [4, 7]: induced
IL-22 expression [4, 7]: progressively inhibited
RORA expression [5]: slightly induced
levels of IL-26 mRNA [5]: increased with the dose
RORC expression ([5]; increasing concentrations of TGF-β): gradually induced

soluble IL-21R: neutralizing soluble IL-21R (R&D) [reference compound]
effect on IL-17 expression ([4]; IL-23+IL-1β+IL-2+TGF-β, at levels that inhibited STAT3 phosphorylation, day 6): no effect

B1: IL-23: cytokine, 10 ng/ml IL-23 (eBioscience) (protein, UniProt Q9NPF7 20-189; P29460 23-328, looked up)
Interleukin-23 subunit alpha: RAVPGGSSPAWTQCQQLSQKLCTLAWSAHPLVGHMDLREEGDEETTNDVPHIQCGDGCDPQGLRDNSQFCLQRIHQGLIFYEKLLGSDIFTGEPSLLPDSPVGQLHASLLGLSQLLQPEGHHWETQQIPSLSPSQPWQRLLLRFKILRSLQAFVAVAARVFAHGAATLSP
Interleukin-12 subunit beta: IWELKKDVYVVELDWYPDAPGEMVVLTCDTPEEDGITWTLDQSSEVLGSGKTLTIQVKEFGDAGQYTCHKGGEVLSHSLLLLHKKEDGIWSTDILKDQKEPKNKTFLRCEAKNYSGRFTCWWLTTISTDLTFSVKSSRGSSDPQGVTCGAATLSAERVRGDNKEYEYSVECQEDSACPAAEESLPIEVMVDAVHKLKYENYTSSFFIRDIIKPDPPKNLQLKPLKNSRQVEVSWEYPDTWSTPHSYFSLTFCVQVQGKSKREKKDRVFTDKTSATVICRKNASISVRAQDRYYSSSWSEWASVPCS
suppression of TGF-β-induced FOXP3 expression ([4]; day 6): able to suppress
IL-17F expression [5]: no effect
IL-23R expression [5]: induced to some extent
